Read-outs that look alike come from different tables or passages of the source.

3 molecules from patent US20090076029A1 (Palatin Technologies, Inc., priority 2007, published 2009) can be followed below.

Assay [1] has as its target T1, hMC4-R.
T1 construct: expressed in transfected cells; host or cells: HEK-293
Description: Competitive inhibition assay using [I125]-NDP-α-MSH, hMC4-R membranes. It is filed as binding, human. The note with it: for Inhibition at 1 μM (NDP-α-MSH) MC4-R: 1 μM compound.

Assay [2] deals with T2, MC1-R.
T2 construct: other: 1 μM compound
The assay can be described thus: Competitive inhibition assay using [I125]-NDP-α-MSH, MC1-R membranes. It is filed as binding, mouse.

In assay [3] the target is T3, hMC3-R.
T3 construct: expressed in transfected cells; host or cells: HEK-293
Description: Competitive inhibition assay using [I125]-NDP-α-MSH, hMC3-R membranes. It is filed as binding, human. The note with it: for Ki: read-out: Ki (nM) (NDP-α-MSH) MC3-R; for Inhibition at 1 μM (NDP-α-MSH) MC3-R: 1 μM compound. In a few lines:
(§1)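 Membranes from HEK-293 cells expressing hMC3-R, hMC4-R or hMC5-R, or from mouse B-16 melanoma cells (MC1-R), with 0.2–0.4 nM [125I]-NDP-α-MSH in 50 mM HEPES pH 7.2 with Mg2+, Ca2+, K+. Test compound typically 1 μM; 90 min, room temperature; filtration, gamma counting. Percent inhibition vs specific binding (1 μM α-MSH), triplicate mean, negatives as 0%.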

The test system of assay [4] is T4, hMC5-R.
T4 construct: expressed in transfected cells; host or cells: HEK-293
The assay can be described thus: cAMP functional assay, HEK-293 cells expressing hMC5-R. It is filed as cell-based, human. As to conditions: cAMP assay at 1 μM. In general terms: Cyclic AMP is a second messenger, typically raised through Gs and lowered through Gi signalling.

For assay [5], the system named is T5, MC1-R.
T5 construct: from B-16 mouse melanoma cells (containing MC1-R); endogenous in cells; host or cells: B-16 mouse melanoma cells
Description: cAMP functional assay, B-16 mouse melanoma cells expressing MC1-R. The class given is cell-based. The note with it: cAMP assay at 1 μM.

Assay [6] has as its target T4, hMC5-R. Description: Competitive inhibition assay using [I125]-NDP-α-MSH, hMC5-R membranes. The class given is binding, human. As to conditions: for Ki: read-out: Ki (nM) (NDP-α-MSH) MC5-R; for Inhibition at 1 μM (NDP-α-MSH) MC5-R: 1 μM compound. The procedure, abridged: as §1
Another assay deals with T6, MC4-R.
T6 construct: expressed in transfected cells; host or cells: HEK-293
Description: Assay for inverse agonist, HEK-293 cells expressing MC4-R. The class given is cell-based. As to conditions: FIG. 3. The procedure: Assay for inverse agonist. […] The experimental protocol was essentially as described above. The cells were exposed to the test compounds over a concentration range of 0.05 nM to 5000 nM for 1 hour at 37° C. AgRP (83-132) was used as the reference inverse agonist. Data analysis and EC50 values were determined by using nonlinear regression analysis with the Prism Graph-Pad software.

In assay [7] the test system is T1, hMC4-R. The class given is binding, human. As to conditions: for Inhibition at 1 μM (AgRP) MC4-R: 1 μM compound. In a few lines: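 Membranes from hMC4-R-expressing cells incubated 1 h at 37 °C with 0.2 nM [I^125]-AgRP (83-132) and increasing compound in 25 mM HEPES pH 7.5, 100 mM NaCl, 2 mM CaCl2, 2 mM MgCl2, 0.3 mM 1,10-phenanthroline, 0.5% BSA. Filtration, gamma counting; specific binding kept ≤10% of added counts.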

The subject of assay [8] is T3, hMC3-R. The assay can be described thus: cAMP functional assay, HEK-293 cells expressing hMC3-R. The class given is cell-based, human. The note with it: cAMP assay at 1 μM.
Assay [9] has as its system T1, hMC4-R. Description: cAMP functional assay in HEK-293 cells expressing MC4-R (agonist, neutral antagonist/Schild). The class given is cell-based, human. The note with it: for functional status (pAg, Ag, Antag, Inactive): MC4-R, Table 1; for intrinsic activity at MC4-R: NDP-α-MSH maximal stimulation = 1.0; for functional status at MC4-R: mostly at 1 μM. In a few lines:
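Cells in EBSS/HEPES pH 7.5 with 0.3 mM IBMX, exposed to compound (0.05-5000 nM, 1% DMSO) for 1 h at 37 °C; cAMP by EIA, EC50 by nonlinear regression. Antagonism: 30 min compound pre-incubation, then 1 nM NDP-α-MSH for 1 h; Schild analysis over 0.005-5000 nM agonist gives pA2.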

For assay [10], the target named is MC1-R. Description: Competitive inhibition assay using [I125]-NDP-α-MSH, MC1-R membranes. It is filed as binding, mouse. The note with it: for Inhibition at 1 μM (NDP-α-MSH) MC1-R: 1 μM compound.
[11] abbreviates: MC4-R membranes, Table 1, read-out: Ki (nM) I125-NPD-α-MSH.
[12] abbreviates: read-out: Ki (nM) (NDP-α-MSH) MC4-R.
[13] abbreviates: MC4-R membranes, Table 1, read-out: Ki (nM) I125-AgRP.

`CC(=O)N[C@H](Cc1ccc2ccccc2c1)C(=O)N1C[C@@H](CC(C)C)N(CCc2ccc3ccccc3c2)C[C@@H]1CCCNC(=N)N` [Example 13, N-{2-[2(S)-(3-Guanidino-propyl)-5(R)-isobutyl-4(2-naphthalen-2-yl-ethyl)-piperazin-1-yl]-1(R)-naphthalen-2-ylmethyl-2-oxo-ethyl}-acetamide]: the Ki (in general, a dissociation constant, usually derived from enzyme kinetics or from competition with a known ligand) at hMC4-R [1] (setting [11]) worked out at 6 nM; on hMC4-R [1] (setting [12]), 6 nM; on MC1-R [2], 4620 nM; at hMC3-R [3] it was 474 nM; at hMC5-R [6], 378 nM; at hMC4-R [7] (setting [13]), 3.7 nM. The inhibition constant Ki at hMC4-R [7] (read-out: Ki (nM) (AgRP) MC4-R) was 3.7 nM. Besides, the Inhibition (commonly the relative decrease from the control value, in per cent) at 1 μM (NDP-α-MSH) MC1-R in the assay on MC1-R [2] (1 μM compound) stood at 0%. The “functional status at MC5-R” value with hMC5-R [4] was “partial agonist (intrinsic activity between 0.1 (10%) and 0.7 (70%) is classified as a partial agonist)”. Also, the “functional status at MC1-R” value in the assay with MC1-R [5] was “no intrinsic activity (intrinsic activity below 0.1 (10%) is classified as inactive or having no intrinsic activity)”. The “inverse agonism (basal cAMP)” value with MC4-R is listed as “inverse agonism”. In addition, the “Inhibition at 1 μM (AgRP) MC4-R” value in the assay on hMC4-R [7] was 100%. In the assay with hMC3-R [8], the “functional status at MC3-R” value was “no intrinsic activity (intrinsic activity below 0.1 (10%) is classified as inactive or having no intrinsic activity)”. The “functional status (pAg, Ag, Antag, Inactive)” value in the assay on hMC4-R [9] is “Antag (“Antag” means antagonist)”. The “intrinsic activity at MC4-R” value in the assay with hMC4-R [9] is given as “no intrinsic activity”. Further, the “pA2 value at MC4-R” value with hMC4-R [9] (Schild plot vs NDP-α-MSH) was found to be 7.3. Moreover, in the assay with hMC4-R [9] (cAMP assay), the “functional status at MC4-R” value is given as “antagonist”.

In the case of `NCCCC[C@H]1C(=O)N(CCc2ccc3ccccc3c2)CCN1C(=O)[C@@H](Cc1ccc(Cl)cc1Cl)NC(=O)/C=C/c1ccccc1` [Example 21, (E)-N—[(R)-2-[(S)-2-(4-Amino-butyl)-4-(2-naphthalen-2-yl-ethyl)-3-oxo-piperazin-1-yl]-1-(2,4-dichloro-benzyl)-2-oxo-ethyl]-3-phenyl-acrylamide], the “Inhibition at 1 μM (NDP-α-MSH) MC4-R” value in the assay on hMC4-R [1] was determined as 96%. The Ki on hMC4-R [1] (setting [11]) is 6 nM; at hMC4-R [1] (setting [12]), 6 nM; at MC1-R [10], 502 nM; at hMC3-R [3], 648 nM; on hMC5-R [6], 398 nM; at hMC4-R [7] (setting [13]), 5 nM. On hMC4-R [7] (read-out: Ki (nM) (AgRP) MC4-R), the inhibition constant (Ki) was 5 nM. Also, the “attenuation of binding of α-MSH and AgRP to MC4-R” value with hMC4-R [1] (both ligands (NDP-α-MSH and AgRP), summary) was “attenuate the binding of both α-MSH and AgRP to MC4-R”. Further, in the assay on MC1-R [10], the “Inhibition at 1 μM (NDP-α-MSH) MC1-R” value is 30%. In addition, the “Inhibition at 1 μM (NDP-α-MSH) MC3-R” value in the assay with hMC3-R [3] came to 46%. In the assay on hMC5-R [6], the “Inhibition at 1 μM (NDP-α-MSH) MC5-R” value worked out at 60%. Moreover, in the assay on hMC4-R [7], the “Inhibition at 1 μM (AgRP) MC4-R” value amounted to 100%. For the same molecule, in the assay with hMC4-R [9], the “functional status (pAg, Ag, Antag, Inactive)” value is on record as “pAg (“pAg” means partial agonist)”. In addition, in the assay on hMC4-R [9], the “intrinsic activity at MC4-R” value is on record as 0.2. In addition, the EC50 – broadly, the midpoint of the concentration-response curve – in the assay on hMC4-R [9] (cAMP assay, read-out: EC50 (nM) at MC4-R) came out at 112 nM.

For the molecule `N=C(N)NCCC[C@H]1CN(C(=O)Cc2ccc3ccccc3c2)[C@H](Cc2ccccc2)CN1C[C@H](N)Cc1ccc2ccccc2c1` [Example 30, N-{3-[1-[2(R)-Amino-3-naphthalen-2-yl-propyl]-5(R)-benzyl-4-(2-naphthalen-2-yl-acetyl)-piperazin-2(S)-yl]-propyl}-guanidine], the “Inhibition at 1 μM (NDP-α-MSH) MC4-R” value with hMC4-R [1] worked out at 92%. The inhibition constant Ki at hMC4-R [1] (setting [11]) came to 55 nM; on hMC4-R [1] (setting [12]) it was 61 nM; at MC1-R [10], 2770 nM; at hMC3-R [3], 387 nM; at hMC5-R [6] it was 178 nM; at hMC4-R [7] (setting [13]) it was 90 nM. For the same molecule, the Ki on hMC4-R [7] (read-out: Ki (nM) (AgRP) MC4-R) amounted to 90 nM. The “Inhibition at 1 μM (NDP-α-MSH) MC1-R” value with MC1-R [10] came to 32%. In the assay on hMC3-R [3], the “Inhibition at 1 μM (NDP-α-MSH) MC3-R” value came out at 49%. The “Inhibition at 1 μM (NDP-α-MSH) MC5-R” value in the assay with hMC5-R [6] was 87%. Besides, the “functional status (pAg, Ag, Antag, Inactive)” value in the assay with hMC4-R [9] is reported as “Inactive”. The “functional status at MC4-R” value in the assay on hMC4-R [9] (cAMP assay) is “inactive”.
